Reference: patent publication US7049321B2, “Methods and pharmaceutical compositions for treatment of central and peripheral nervous system disorders and compounds useful therefor” (Israel Institute for Biological Research, priority 2002, dated 2006)

Key:
[1] = Metabolic stability, monkey liver microsomes; type: in vitro ADME; conditions: read-out: Metabolic Stability T1/2
Experimental: (§1) The metabolic stability of AF292 was evaluated by monitoring its disappearance while incubated with rat, […], monkey, and human hepatic microsomes. Testosterone, and propranolol were run as assay controls.

[2] = system: Human α-glycoprotein (AGP); test: Protein binding, human α-glycoprotein; type: in vitro ADME; conditions: 10 μM
Experimental: (§2) Protein binding studies were carried out in human plasma, α1-glycoprotein, human serum albumin (HSA), and Dulbecco's Phosphate Buffered Saline (PBS). AF292 was added to a final concentration of 10 μM. […] (μM) and in human […] (AGP), (see Table 1).

[3] = Pharmacokinetic study in dogs; type: in vivo; conditions: beagle, dog, plasma
Description: The results of the PK profile of AF292 in rats and Beagle dogs (overnight fasting; drug administered in water solution; gavage) are listed in Table 1.

[4] = molecular target: T1, human M1 (Homo sapiens, UniProt P11229); test: PI hydrolysis in cells transfected with human M1; type: cell-based; parameters: expressed in transfected cells
T1 sequence (P11229 1-460): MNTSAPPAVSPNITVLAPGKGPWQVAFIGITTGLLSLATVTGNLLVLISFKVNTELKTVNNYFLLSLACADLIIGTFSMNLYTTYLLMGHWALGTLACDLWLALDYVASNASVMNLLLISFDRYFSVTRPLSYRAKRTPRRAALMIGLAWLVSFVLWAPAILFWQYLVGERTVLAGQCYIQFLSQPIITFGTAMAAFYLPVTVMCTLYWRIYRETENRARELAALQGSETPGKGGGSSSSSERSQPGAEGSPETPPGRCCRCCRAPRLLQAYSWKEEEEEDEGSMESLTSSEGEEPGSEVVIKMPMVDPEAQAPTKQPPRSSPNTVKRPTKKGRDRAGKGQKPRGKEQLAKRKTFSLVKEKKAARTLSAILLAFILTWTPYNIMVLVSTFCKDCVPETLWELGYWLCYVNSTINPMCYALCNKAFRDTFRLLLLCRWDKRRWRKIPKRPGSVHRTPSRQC

[5] = Metabolic stability, human liver microsomes; type: in vitro ADME; conditions: read-out: Metabolic Stability T1/2
Experimental: as §1

[6] = Protein binding, PBS; type: in vitro ADME; conditions: 10 μM
Experimental: as §2

[7] = molecular target: Human serum albumin (HSA) (Homo sapiens, UniProt P02768); test: Protein binding, human serum albumin; type: in vitro ADME; conditions: 10 μM
Sequence of Human serum albumin (HSA) (P02768 25-609): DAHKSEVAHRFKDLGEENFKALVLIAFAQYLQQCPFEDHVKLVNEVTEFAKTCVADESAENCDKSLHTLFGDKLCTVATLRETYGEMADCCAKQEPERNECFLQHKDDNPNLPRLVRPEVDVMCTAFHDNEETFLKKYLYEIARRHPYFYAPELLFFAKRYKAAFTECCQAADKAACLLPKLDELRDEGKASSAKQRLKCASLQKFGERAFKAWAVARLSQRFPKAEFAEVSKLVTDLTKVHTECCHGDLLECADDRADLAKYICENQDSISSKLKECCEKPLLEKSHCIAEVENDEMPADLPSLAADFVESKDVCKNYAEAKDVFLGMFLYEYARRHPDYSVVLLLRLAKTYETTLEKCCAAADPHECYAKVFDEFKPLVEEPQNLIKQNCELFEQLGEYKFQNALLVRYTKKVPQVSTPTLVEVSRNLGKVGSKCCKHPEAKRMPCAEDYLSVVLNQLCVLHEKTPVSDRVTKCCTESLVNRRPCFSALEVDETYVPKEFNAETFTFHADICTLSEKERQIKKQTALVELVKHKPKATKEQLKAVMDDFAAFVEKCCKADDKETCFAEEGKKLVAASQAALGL
Experimental: as §2

[8] = Metabolic stability, rat liver microsomes; type: in vitro ADME; conditions: read-out: Metabolic Stability T1/2
Experimental: as §1

[9] = system: AF64A-injected rats; test: Passive avoidance in AF64A-treated rats; conditions: for Retention latency: 72 h after training; for Minimal effective dose: p.o.
[10] = Protein binding, human plasma; type: in vitro ADME
Experimental: as §2

[11] = molecular target: T2, rat M1 mAChR (Rattus norvegicus, UniProt P08482); test: PI turnover, rat M1 mAChR; type: cell-based
T2 construct: expressed in transfected cells; host or cells: probably the rat pheochromocytoma cells transfected with M1 mAChR
T2 sequence (P08482 whole entry): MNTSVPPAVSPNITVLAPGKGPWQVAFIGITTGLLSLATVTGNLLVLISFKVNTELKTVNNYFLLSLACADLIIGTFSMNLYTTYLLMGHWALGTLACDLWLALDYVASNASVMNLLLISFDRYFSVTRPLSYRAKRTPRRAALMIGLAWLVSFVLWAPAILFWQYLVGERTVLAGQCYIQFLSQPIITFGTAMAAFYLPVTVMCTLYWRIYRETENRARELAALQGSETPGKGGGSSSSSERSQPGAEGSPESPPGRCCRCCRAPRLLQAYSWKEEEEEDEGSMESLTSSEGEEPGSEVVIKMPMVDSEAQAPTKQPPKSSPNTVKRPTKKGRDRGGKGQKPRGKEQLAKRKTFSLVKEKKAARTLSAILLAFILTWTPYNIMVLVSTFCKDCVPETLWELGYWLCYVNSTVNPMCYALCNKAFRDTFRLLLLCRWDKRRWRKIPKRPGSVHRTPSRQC

[12] = system: aged rats; test: Morris water maze in aged rats; type: in vivo, Sprague-Dawley rats; conditions: for Reversal learning: AF267B 1 mg/kg, AF292 1 and 0.5 mg/kg, po
Description: Old (22–24 months old) and young (three months old) Sprague-Dawley rats had been tested in the MWM.

[13] = system: cells transfected with M1 mAChR; test: Apoptosis (DAPI, TUNEL, FACS) after starvation, Aβ or H2O2; type: cell-based, rat; conditions: for Apoptosis after Aβ or H2O2 (DAPI): DAPI staining
[14] = in vivo; conditions: mouse
Experimental: This calculation was based on the brain weight (2 gr) vs. total plasma volume (14 ml).

[15] = system: rat primary hippocampal cell cultures; test: APPs secretion in rat primary hippocampal cell cultures; type: cell-based; conditions: 100 μm; culture not given
[16] = system: cortical and hippocampal cell culture; test: Protection against NMDA-induced cell death; type: cell-based, rat; conditions: for Neuroprotective potency against 200 μM of NMDA vs MK801: 100 μM agonist
[17] = system: C57BL6J mice; test: Morris water maze in normal hippocampus mice; type: in vivo; conditions: for Training, escape latency: 0.5 and 1 mg/kg i.p. (rivastigmine, nicotine 1 mg/kg); for Training, path length: AF150(S) only the higher dose; for Reversal test, swimming speed: AF150(S)-0.5 mg/kg, AF267B-1 mg/kg, rivastigmine, nicotine
Experimental: (§3) Each group of mice was randomly divided into 7 treatment groups (n=12-14/group). […] All tested compounds and saline were administered once a day for 4 days before starting the behavioral testing, and then for the duration of the 5-day experiment, 30 minutes before testing.
(§4) Training: Each mouse was trained for four consecutive days, four trials (one block) per day, in which the platform position remained constant and was located in the center of the southeast quadrant of the pool. Within each block of four trials, each mouse started at each of the starting locations, but the sequence of locations was randomly selected. A trial consisted of placing a mouse by hand into the water facing the wall of the pool at one of four starting locations, north, south, east or west, around the pool's perimeter. Escape latency (the time to find the platform), path length (the distance traveled by the mouse) and speed (the swimming rate of the mouse) were recorded on each trial by the monitoring system.
(§5) For each mouse, the path length, escape latency, and swimming speed of the four trials on each of the 4 training days were grouped into blocks (one block for each day). […] Specific comparisons were performed, using the simple main effects contrasts acalysis, which is specifically suited for testing significant interactions.
(§6) Transfer test. During trial No. 17, on the fourth day, the platform was entirely removed from the pool (a probe trial). In this trial, the mouse was placed into the water for a limited period (30 s), and its spatial bias was measured by recording the relative distribution of escape latency and path length over the four quadrants of the pool.
(§7) Reversal test. During trials 18–21, on the fifth day, the platform position was changed to the northwest quadrant, opposite to the training quadrant. Thus, during reversal learning, the platform location was moved relative to the configuration of objects within the room, but the pool occupied the same place within the room throughout the entire experiment. Testing of the rats and measures taken were the same as in training.
(§8) For each mouse, the escape latency, path length and swimming speed of the reversal test (trials No. 18–21) were grouped into one block.

[18] = system: C57BL/10SnJ (B10) mice; test: Morris water maze in small hippocampus mice; type: in vivo; conditions: for Training, escape latency: 0.5 and 1 mg/kg i.p. (rivastigmine, nicotine 1 mg/kg); for Training, path length: AF150(S) both doses, AF267B the higher dose; for Reversal test, escape latency / Training, swimming speed / Transfer test, spatial bias: mouse, in vivo
Experimental: C57BL/10SnJ (B10) mice were selected due to their small hippocampi and decreased number of hippocampal pyramidal neurons; the cell loss seemed to be associated with poor spatial learning.
as §3, §4, §5, §6, §7, §8

[19] = oral, Dogs, extrapolated for 5 mg/kg

SMILES	half-life [1] [h]	Protein Binding [2]	PI turnover vs. carbachol, M1 [4] [%]	half-life [5] [h]	Protein Binding [6]	Protein Binding [7]	half-life [8] [h]	Minimal effective dose [9]	fraction unbound at 10 μM [10]	PI turnover vs. CCh, rat M1 mAChR [11]	Reversal learning [12]	Apoptosis after Aβ or H2O2 (DAPI) [13]	Tmax [14] [h]	APPs secretion, fold over control (agonists vs CCh) [15] [fold]	Prevention of NMDA-induced cell death [16]	Neuroprotective potency against 200 μM of NMDA vs MK801 [16]	Training, escape latency [17]	Training, path length [17]	Reversal test, swimming speed [17]	Training, swimming speed ([17]; mouse, in vivo)	also measured
CC[C@@H]1SC2(CCNCC2)NC1=O [AF292, (S)-2-Ethyl-1-thia-4,8-diaza-spiro[4.5]decan-3-one]	1.23	0%	~35	> 1.67	0% and PBS = 0%	Human serum albumin (HSA) = 22%	1.53	below 1 mg/kg	0.65	PI, rat M1 mAChR; 50%	did not reach significance	–	–	–	–	–	–	–	–	–	AUC(0-inf) ([3]; po, Dogs, 5 mg/kg): 4650 ng·h/mL; Cmax ([3]; po, Dogs, 5 mg/kg): 1190 ng/mL; MRT ([3]; po, Dogs, 5 mg/kg): 4.85 h; Tmax ([3]; po, Dogs, 5 mg/kg): 0.8 h; half-life ([3]; po, Dogs, 5 mg/kg): 2.04 h; Retention latency ([9]; 1mg/kg p.o.): 447 ± 46.8 s; Probe trial, memory ([12]; both doses (1 and 0.5 mg/kg, po)): tendency for partial spatial bias
CC1=NCC2(CCN(C)CC2)S1 [AF150(S), 2,8-Dimethyl-1-thia-3,8-diaza-spiro[4.5]dec-2-ene]	–	–	–	–	–	–	–	–	–	–	–	protect these cells from apoptosis	0.0167 to 0.167	2.8	effective in prevention of cell death	slightly less	increased the escape latencies	impaired the path length	significantly decreased	impaired the swimming speed	Apoptosis, TUNEL ([13]; 100 μM, 25 μM β-amyloid 25–35): able to block the apoptosis; Reversal test, escape latency ([17]; AF150(S) 0.5 mg/kg): impaired the escape latency; Transfer test, spatial bias ([17]; mouse, in vivo): partial spatial bias; Training, escape latency [18]: positively affected; Training, path length [18]: positively affected; Reversal test, escape latency [18]: improved the escape latency; Training, swimming speed [18]: enhancing effect of AF150(S) was equal in both doses; Transfer test, spatial bias [18]: complete spatial bias
CC[C@@H]1SC2(CCN(C)CC2)NC1=O [AF267B, (S)-2-ethyl-8-methyl-1-thia-4,8-diaza-spiro[4.5]decan-3-one]	0.45	AGP = 5.7%	~66	> 1.67	PBS = 0%	HSA = 32%	1.47	less than 0.1 mg/kg	0.75	PI, rat M1 mAChR: 75%	improved significantly the reversal learning	protect these cells from apoptosis	0.333 to 0.5	2.8	effective in prevention of cell death	slightly less	did not significantly affect	neither AF267B nor rivastigmine had any effect	significantly decreased	no such effect	MRT [14]: 2.13 h; AUC(0-inf) [3, 19]: 2760 ng·h/mL; Cmax [3, 19]: 1080 ng/mL; AUC(0-inf) ([3]; po, Dogs., 1 mg/kg): 552 ng·h/mL; Cmax ([3]; po, Dogs., 1 mg/kg): 257 ng/mL; MRT ([3]; po, Dogs., 1 mg/kg): 1.96 h; Tmax ([3]; po, Dogs., 1 mg/kg): 0.58 to 0.75 h; half-life ([3]; po, Dogs., 1 mg/kg): 1.33 h; Retention latency ([9]; 0.03 mg/kg p.o.): 105.7 ± 31.9 s; Retention latency ([9]; 0.1 mg/kg p.o.): 440.7 ± 46.4 s; Learning ([12]; 1 mg/kg): tendency for improvement; Swimming ability ([12]; rat, in vivo): no significant effect on the swimming ability; Training, escape latency [18]: positively affected; Training, path length [18]: positively affected; Reversal test, escape latency [18]: improved the escape latency; Training, swimming speed [18]: enhanced the swimming speed in a dose dependent manner; Transfer test, spatial bias [18]: complete spatial bias
